Test results reported in patent US20060069132A1, “Azolecarboxamide herbicides” (priority 2004, published 2006).

Key:
johnsongrass = assay: Test C pre-/postemergence herbicide test; assay type: in vivo, Sorghum halepense; conditions: for Johnsongrass plant response rating: Preemergence, scale 0 to 100, 0 no effect, 100 complete control
In short: (§1)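 Seeds were planted and sprayed preemergence with test chemicals in a non-phytotoxic solvent mixture containing surfactant; postemergence treatments went onto plants 2 to 18 cm tall (1- to 4-leaf stage). After 12 to 14 days in a greenhouse, injury was rated visually against untreated controls on a 0–100 scale.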

rice = assay: Test B pre-/postemergence herbicide test; assay type: in vivo, Oryza sativa; conditions: preemergence
In short: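 Herbicidal effect was judged by eye on a 0–100 scale after plants stood 13 to 15 days in the greenhouse following pre- or postemergence treatment with surfactant-containing formulations.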

lambsquarters = assay: Test C pre-/postemergence herbicide test; assay type: in vivo, Chenopodium album; conditions: for Lambsquarters plant response rating: Preemergence, scale 0 to 100, 0 no effect, 100 complete control
In short: as §1

woolly cupgrass = assay: Test C pre-/postemergence herbicide test; assay type: in vivo, Eriochloa villosa; conditions: for Cupgrass, Woolly plant response rating: Preemergence, scale 0 to 100, 0 no effect, 100 complete control
In short: as §1

yellow nutsedge = assay: Test C pre-/postemergence herbicide test; assay type: in vivo, Cyperus esculentus; conditions: for Nutsedge, Yellow plant response rating: Preemergence, scale 0 to 100, 0 no effect, 100 complete control
In short: as §1

barnyardgrass = assay: Test C flooded paddy test; assay type: in vivo, Echinochloa crus-galli; conditions: for Plant response rating, Barnyardgrass: 500 g ai/ha, visual rating after 12 to 14 days
In short: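 Postemergence sprays applied to plants 2 to 18 cm tall (1- to 4-leaf stage); paddy species grown to 2-leaf stage under flooding. After 12 to 14 days in greenhouse, visual rating versus untreated controls on 0–100 scale (0 no effect, 100 complete control).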

[1] = 62 g ai/ha, preemergence, scale 0 to 100
[2] = 125 g ai/ha, scale 0 (no effect) to 100 (complete control), visual, 12 to 14 days, preemergence
[3] = 125 g ai/ha, 0 = no effect, 100 = complete control
[4] = 500 g ai/ha, visual rating 0-100, 0 no effect, 100 complete control
[5] = 250 g ai/ha, scale 0 to 100 (0 no effect, 100 complete control), visual, 12 to 14 days, preemergence
[6] = 62 g ai/ha, scale 0 to 100 (0 no effect, 100 complete control)
[7] = 125 g ai/ha, scale of 0 to 100, 0 is no effect, 100 is complete control
[8] = 250 g ai/ha, scale of 0 to 100, 0 is no effect, 100 is complete control
[9] = scale 0 to 100 (0 no effect, 100 complete control)
[10] = 250 g ai/ha, scale 0-100, preemergence
[11] = 500 g ai/ha, scale 0 to 100 (0 no effect, 100 complete control), visual, 12 to 14 days, preemergence

Row | SMILES | Plant response rating, Johnsongrass (johnsongrass; [1]) | Plant response rating, Johnsongrass (johnsongrass; [2]) | Johnsongrass plant response rating (johnsongrass; 500 g ai/ha) | Rice plant response rating (0 to 100 scale) (rice; [3]) | Plant response rating, Rice (rice; [4]) | Plant response rating, Lambsquarters (lambsquarters; [1]) | Plant response rating, Lambsquarters (lambsquarters; [2]) | Lambsquarters plant response rating (lambsquarters; 500 g ai/ha) | Plant response rating, Cupgrass, Woolly (woolly cupgrass; [1]) | Plant response rating, Cupgrass, Woolly (woolly cupgrass; [2]) | Plant response rating, Cupgrass, Woolly (woolly cupgrass; [5]) | Cupgrass, Woolly plant response rating (woolly cupgrass; 500 g ai/ha) | Plant response rating, Nutsedge, Yellow (yellow nutsedge; [1]) | Plant response rating, Nutsedge, Yellow (yellow nutsedge; [2]) | Nutsedge, Yellow plant response rating (yellow nutsedge; 500 g ai/ha) | Barnyardgrass plant response rating (barnyardgrass; [6]) | Barnyardgrass plant response rating (barnyardgrass; [7]) | Barnyardgrass plant response rating (barnyardgrass; [8]) | Plant response rating, Barnyardgrass (barnyardgrass; [9]) | further results
1 | CCc1nn(C(C)(C)C)cc1C(=O)Nc1cccc(C(C)=NO)c1 [Compound 188] | 0 | 20 | 75 | 50 | 70 | 95 | 100 | 100 | 0 | 60 | 70 | 75 | 0 | 0 | 0 | 35 | 55 | 75 | 85 | –
2 | CCn1nc(C(C)(C)C)cc1C(=O)Nc1cc(C#N)ccc1F [Compound 140] | – | 45 | 75 | – | 70 | – | 85 | 100 | – | 0 | 0 | 45 | – | 0 | 0 | 0 | 0 | 0 | 15 | Plant response rating (0 = no effect, 100 = complete control), Johnsongrass (johnsongrass; 62 g ai/ha, preemergence): 0; Plant response rating, Rice (rice; 125 g ai/ha, 0 to 100 scale, 0 is no effect, 100 is complete control): 0; Plant response rating (0 = no effect, 100 = complete control), Lambsquarters (lambsquarters; 62 g ai/ha, preemergence): 75; Plant response rating (0 = no effect, 100 = complete control), Cupgrass, Woolly (woolly cupgrass; 62 g ai/ha, preemergence): 0; Plant response rating (0 = no effect, 100 = complete control), Nutsedge, Yellow (yellow nutsedge; 62 g ai/ha, preemergence): 0
3 | CCN1N=C(C(C)(C)C)CC1C(=O)Nc1cc(C(=O)N2CCCC2)ccc1F (racemic) [Compound 309] | 75 | 80 | – | 70 | – | 100 | 100 | – | 40 | 70 | – | – | 5 | 30 | – | 50 | – | 85 | 90 | Plant response rating, Johnsongrass (johnsongrass; [10]): 95; Plant response rating, Johnsongrass (johnsongrass; [11]): 100; Plant response rating, Rice (rice; 500 g ai/ha, visual rating, 0 = no effect, 100 = complete control): 90; Plant response rating, Lambsquarters (lambsquarters; [10]): 100; Plant response rating, Lambsquarters (lambsquarters; [11]): 100; Plant response rating, Cupgrass, Woolly (woolly cupgrass; [10]): 90; Plant response rating, Cupgrass, Woolly (woolly cupgrass; [11]): 100; Plant response rating, Nutsedge, Yellow (yellow nutsedge; [10]): 45; Plant response rating, Nutsedge, Yellow (yellow nutsedge; [11]): 60; Barnyardgrass plant response rating (barnyardgrass; 125 g ai/ha, scale 0 to 100 (0 no effect, 100 complete control)): 60
